In PMC6222487 (Molecules : A Journal of Synthetic Chemistry and Natural …, 2018):
Where two headings read alike, the source gives them in different places.

Columns and labels:
[1] = molecular target: T1, AChE (from electric eel) (Electrophorus electricus, UniProt O42275); assay: biochemical; assay type: biochemical; conditions: for IC50: mean ± SEM, NA = No potent inhibitory activity
T1 construct: purchased Merck & Co
Procedure: (§1) Photometric 96-well microplates made from polystyrene (Thermo Scientific, Waltham, […]. USA) were used for measurement purposes.
(§2) AChE and BuChE inhibitory activities were measured by the spectrophotometric method of Ellman, with slight modification. Briefly, all in vitro assays were performed in 0.1 M NaH2PO4/Na2HPO4 buffer, pH 7.4, using a THERMO Enzyme-labeled Instrument. The enzyme solutions were prepared to obtain 2.0 units/mL in 2.0 mL aliquots. The assay medium (1 mL) consisted of phosphate buffer (pH 7.4), 10 μL of the enzyme, 30 μL of 0.01 M DTNB, and 30 μL of substrate (ATC or BTC) at a concentration of 0.01 M. The test and reference compounds were first dissolved in DMSO (5‰) and fetal bovine serum (1‰), and then diluted in 0.1 M NaH2PO4/Na2HPO4 buffer (pH 7.4) to provide a final concentration range. The inhibitors were added to the assay solution containing enzyme, buffer, and DTNB with pre-incubation for 20 min at 37 °C, prior to the addition of the substrate. The activity was determined by measuring the increase in absorbance at 410 nm at 1 min intervals at 37 °C. The data were calculated according to the method described by Ellman et al. Each concentration was assayed in triplicate. Blanks containing all of the components except AChE were included in the analyses.

[2] = molecular target: T2, BuChE (from equine serum) (Equus caballus, UniProt P81908); assay: biochemical; conditions: mean ± SEM
T2 construct: purchased Merck & Co; host or cells: equine serum
Procedure: as §1, §2

[3] = molecular target: T3, Aβ (1-42) (Homo sapiens, UniProt P05067); assay: biochemical; conditions: self-induced aggregation, thioflavin-T; Aβ 20 μM, 37 °C, 24 h; NA = No potent inhibitory activity
T3 construct: Aβ (1-42) peptide (Sigma-Aldrich); purchased Sigma-Aldrich
Procedure: A Thioflavin T-based fluorometric assay was performed in order to investigate the self-induced Aβ (1-42) aggregation. Briefly, compounds to be tested were firstly dissolved in DMSO to obtain a 10 mM solution and then diluted in phosphate buffer (pH 7.4) to provide a final concentration range. […] After incubation, thioflavin-T (5 μM in 50 mM glycine-NaOH buffer, pH 8.0) was added into the above 96-well microplate and the samples were diluted to a final volume of 150 μL. […] Each inhibitor was run in triplicate.

[4] = tested on: HepG2 cells; assay type: cell-based; conditions: for Cell viability: 24 h, CCK-8; for Cytotoxicity (in words): HepG2 cells, up to 500 μM
Procedure: One of the best documented side-effects of the drug discovery and development of AD is cytotoxicity. To probe whether such a type of target compounds involves cytotoxic effects, we respectively treated HepG2 cells and SH-SY5Y cells with several concentrations of the corresponding compound. Cell viability was determined by a CCK-8 assay. […].
HepG2 cells (human hepatocellular liver carcinoma cell line from American Type Culture Collection, ATCC) were cultured in Eagle’s minimum essential medium (EMEM) supplemented with 10% heat-inactivated fetal bovine serum (FBS), and 100 U/mL of penicillin/streptomycin (Gino Biomedical Technology Co. LTD., Hangzhou, China). Cultures were seeded into flasks containing supplemented medium and maintained at 37 °C in a humidified atmosphere of 5% CO2. For assays, cells (1.0 × 10^5 cells/well) were seeded in a 96-well plate in complete medium, the medium was removed after 24 h, and cells were exposed to the increasing concentrations of compounds 8q or 8r (0, 25, 50, 125, 200, 300, 400, and 500 μM) in DMEM with no serum for a further 24 h. Cell survival was measured through a CCK-8 assay. All compounds were dissolved in pure DMSO.

[5] = tested on: SH-SY5Y cells; assay type: cell-based; conditions: for Cytotoxicity (in words): SH-SY5Y cells, up to 500 μM; for Cell viability: SH-SY5Y, 24 h, CCK-8
Procedure: To probe whether such a type of target compounds involves cytotoxic effects, we respectively treated HepG2 cells and SH-SY5Y cells with several concentrations of the corresponding compound. Cell viability was determined by a CCK-8 assay.
SH-SY5Y cells (human neuroblastoma cell line from American Type Culture Collection, ATCC, Manassas, VA, USA) were seeded into 96-well plates at a density of 4 × 10^4 cells/mL in Dulbecco’s modified Eagle’s medium (DMEM) supplemented with 10% FBS and 100 U/mL of penicillin/streptomycin (Gino Biomedical Technology Co. LTD., Hangzhou, China), and incubated in a humidified atmosphere containing 5% CO2 at 37 °C. […] After this incubation, 10 μL/well of CCK-8 (5 mg/mL) was added and incubated at 37 °C for 4 h. The optical density (OD) of each well was measured using an Epoch Microplate Spectrophotometer (BioTek Instruments, Inc., Winooski, VT, USA) with a test wavelength of 450, 630 nm.

[6] = molecular target: T3, Aβ (1-42); assay: Aβ (1-42) fibril formation monitored by transmission electron microscopy (TEM); assay type: biochemical; conditions: Aβ (1-42) 20 µM, compound 50 µM, 37 °C, 24 h
Procedure: Aβ (1-42) peptide (Sigma-Aldrich) was added into a 96-well microplate and then diluted by phosphate buffer (10 mM, pH 7.4) to provide a concentration of 100 μM solution at 4 °C before use and the sample preparation procedure was the same as that used for the Thioflavin T assay. Aliquots (5 μL) of the samples were placed on a carbon-coated copper/rhodium grid for 2 min at room temperature. Each grid was stained with phosphomolybdic acid solution (3%, 5 μL) for 2 min. After draining off the excess staining solution, the specimen was transferred for imaging by transmission electron microscopy.

[7] = molecular target: T4, AChE (Electrophorus electricus, UniProt O42275); assay: Kinetic study of AChE inhibition (Lineweaver-Burk plot); assay type: biochemical; conditions: substrate 0.1–0.4 mM
T4 construct: purchased Merck & Co
Procedure: The assay solution (100 μL) was afforded by the addition of 30 μL of DTNB (0.01 M), 10 μL of 2 units/mL AChE, and 30 μL of substrate (ATC) to the phosphate buffer (0.1 M, pH 7.0). Three different concentrations of 8q were added to the assay solution with the AChE and pre-incubated for 20 min at 37 °C, followed by the addition of substrate in different concentrations. Kinetic characterization of the hydrolysis of ATC catalysed by AChE was carried out at 410 nm. A parallel control was made with the assay solution of no inhibitor for each time. The plots were assessed by a weighted least square analysis that assumed the variance of V to be a constant percentage of V for the entire data set.
Figure 2 Determination of the inhibitory type of selected compound 8q on AChE. Merged Lineweaver-Burk reciprocal plots of AChE initial velocity with increasing substrate concentrations (0.1–0.4 mM) in the absence or presence of 8q. Lines were derived from a weighted least-squares analysis of data points.

T3 sequence (P05067 672-713): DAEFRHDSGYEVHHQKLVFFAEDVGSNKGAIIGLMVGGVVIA
T1 sequence (O42275 24-633): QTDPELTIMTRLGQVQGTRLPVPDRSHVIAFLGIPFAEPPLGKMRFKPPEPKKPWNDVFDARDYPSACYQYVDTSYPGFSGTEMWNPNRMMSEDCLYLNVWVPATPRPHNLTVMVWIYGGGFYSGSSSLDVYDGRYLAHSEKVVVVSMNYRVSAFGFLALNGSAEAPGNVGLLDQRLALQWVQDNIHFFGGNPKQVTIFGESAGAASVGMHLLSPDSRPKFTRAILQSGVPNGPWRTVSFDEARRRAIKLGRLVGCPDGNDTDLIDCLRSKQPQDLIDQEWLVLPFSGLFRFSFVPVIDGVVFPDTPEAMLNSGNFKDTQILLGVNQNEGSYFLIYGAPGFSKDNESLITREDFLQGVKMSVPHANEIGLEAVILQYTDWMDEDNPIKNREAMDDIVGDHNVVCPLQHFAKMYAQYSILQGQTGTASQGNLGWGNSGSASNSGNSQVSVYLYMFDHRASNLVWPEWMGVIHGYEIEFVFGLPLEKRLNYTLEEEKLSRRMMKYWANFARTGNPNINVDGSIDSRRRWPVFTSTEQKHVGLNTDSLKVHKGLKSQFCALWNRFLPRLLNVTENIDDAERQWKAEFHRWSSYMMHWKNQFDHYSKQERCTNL
T2 sequence (P81908 whole entry): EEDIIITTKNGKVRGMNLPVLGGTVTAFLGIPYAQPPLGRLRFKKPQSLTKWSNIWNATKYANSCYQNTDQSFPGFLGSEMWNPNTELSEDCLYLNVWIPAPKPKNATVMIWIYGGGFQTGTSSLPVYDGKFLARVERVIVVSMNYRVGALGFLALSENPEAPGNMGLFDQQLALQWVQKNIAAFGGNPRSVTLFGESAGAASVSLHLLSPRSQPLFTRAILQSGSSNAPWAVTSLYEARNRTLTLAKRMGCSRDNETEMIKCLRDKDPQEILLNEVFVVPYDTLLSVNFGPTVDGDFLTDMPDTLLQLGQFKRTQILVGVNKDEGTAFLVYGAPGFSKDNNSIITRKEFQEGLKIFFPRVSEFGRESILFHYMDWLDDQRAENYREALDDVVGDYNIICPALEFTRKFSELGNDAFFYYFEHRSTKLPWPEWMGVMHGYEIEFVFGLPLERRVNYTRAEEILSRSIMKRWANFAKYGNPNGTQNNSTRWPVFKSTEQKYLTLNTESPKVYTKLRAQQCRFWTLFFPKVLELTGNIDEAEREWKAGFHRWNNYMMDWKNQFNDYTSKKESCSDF
T4 sequence (O42275 24-633): as the sequence (O42275 24-633) above

Compound | IC50 [1] [µM] | IC50 [2] [µM] | IC50 [3] [µM] | Cell viability ([4]; HepG2, 25 µM) | Cell viability ([4]; HepG2, 50 µM) | Cell viability ([4]; HepG2, 125 µM) | Cell viability ([4]; HepG2, 200 µM) | Cell viability ([4]; HepG2, 300 µM) | Cell viability ([4]; HepG2, 400 µM) | Cell viability ([4]; HepG2, 500 µM) | Cytotoxicity (in words) [4] | Cytotoxicity (in words) [5] | Cell viability ([5]; 25 µM) | Cell viability ([5]; 50 µM) | Cell viability ([5]; 125 µM) | Cell viability ([5]; 200 µM) | Cell viability ([5]; 300 µM) | Cell viability ([5]; 400 µM) | Cell viability ([5]; 500 µM) | further results
Cc1nc(C)c(C(=O)OCCCOC(=O)c2ccccn2)nc1C [Compound 8r, 3-[(Pyridine-2-carbonyl)oxy]propyl 3,5,6-trimethylpyrazine-2-carboxylate] | 0.00025 ± 0.00039 | 3300 ± 60 | 49.14 ± 0.025 | 102.83 ± 0.57 ^ns percentage of control | 88.05 ± 1.12 ^ns percentage of control | 81.72 ± 0.87 percentage of control | 71.10 ± 1.06 percentage of control | 71.10 ± 0.80 percentage of control | 68.85 ± 1.11 percentage of control | 68.31 ± 0.53 percentage of control | no obvious cytotoxicity | no obvious cytotoxicity | 94.51 ± 0.45 ^ns percentage of control | 91.46 ± 0.29 ^ns percentage of control | 83.23 ± 0.78 percentage of control | 83.26 ± 2.74 percentage of control | 68.43 ± 0.48 percentage of control | 62.68 ± 0.56 percentage of control | 66.38 ± 1.57 percentage of control | AChE inhibition potency relative to tacrine ([1]; stronger than tacrine): 293 times
Cc1nc(C)c(/C=C/C(=O)OCCCOC(=O)c2nc(C)c(C)nc2C)nc1C [Compound 8q, 3-{[(2E)-3-(3,5,6-Trimethylpyrazin-2-yl)prop-2-enoyl]oxy}propyl 3,5,6-trimethylpyrazine-2-carboxylate] | 0.00139 ± 0.00033 | 4040 ± 910 | 17.36 ± 0.027 | 96.81 ± 3.05 ^ns percentage of control | 91.09 ± 0.99 ^ns percentage of control | 81.19 ± 1.48 percentage of control | 64.81 ± 0.54 percentage of control | 66.75 ± 1.11 percentage of control | 68.89 ± 0.51 percentage of control | 70.10 ± 1.98 percentage of control | no obvious cytotoxicity | no obvious cytotoxicity | 104.30 ± 0.29 ^ns percentage of control | 96.08 ± 0.78 ^ns percentage of control | 80.25 ± 1.53 percentage of control | 72.17 ±0.54 percentage of control | 58.92 ± 0.70 percentage of control | 55.14 ± 0.50 percentage of control | 55.28 ± 0.55 percentage of control | Aβ amorphous deposits seen by TEM [6]: could obviously alleviate the formation of Aβ amorphous deposits compared with tacrine; Aβ fibril formation seen by TEM [6]: no obvious Aβ fibril was detected; Inhibitory type on AChE [7]: mixed-type inhibitor
